From patent US6818665B2, “Treatment of obstructive sleep apnea” (priority 2003, dated 2004)

System: OSA patients
Assay: oximeter tests / sleeping registration of OSA patients
Format: in vivo
Excerpt: The medical treatment of OSA must be effective, inexpensive and without any side effects because it must be ongoing for the rest of the patient's life during the sleeping period regardless of the time of the day or night. By conducting regular oximeter tests in connection with the fitting of mechanical assistance, it has been concluded that anti-oxidants, such as tokoferole, has some effect. Hormones that govern the sleep initiation during for example, jet lag, such melatonin that is formed in a gland from the amino-acid tryptophane with serotonin as an intermediate step. […] The corresponding effect has been noticed when the intake has stopped and this effect is normally quicker.
DHEA prevents unwanted complete or total (100%) relaxation of the muscles in the throat region caused melatonin. […] ACTH may be used to increase the production of DHEA. Melatonin may be taken as tablets and lasts about 24 hours. Preferably, melatonin is taken at night. A suitable melatonin dose may be about 0.5-5 mg. DHEA may also be taken as tablets and lasts about 24 hours. Preferably, DHEA is taken in the morning. A suitable DHEA dose may be about 1-5 mg. Of course, melatonin and DHEA may be administered at other times of the day.

C[C@]12CC[C@H](O)CC1=CC[C@@H]1[C@@H]2CC[C@]2(C)C(=O)CC[C@@H]12 [DHEA, dehydroepiandrosterone]
effect of parallel intake on the desired effect (reduced desaturations and SpO2 reduction) (parallel intake with melatonin, especially in combination with ACTH): synergistic increase of the desired effect

COc1ccc2[nH]cc(CCNC(C)=O)c2c1 [melatonin, 5-metoxy-N-acetyletryptamine]
effect on the sleeping registration of OSA patients (number of desaturations and level of SpO2 reduction below 90%) (low dose 0.5-5 mg depending on age, 10-80 years): distinct effect | time to optimal effect (regular intake): after a couple of weeks

tokoferole
effect in regular oximeter tests (anti-oxidants, oximeter tests in connection with the fitting of mechanical assistance): some effect
